Laboratory results taken from patent US6992079B2, “Substituted 11-phenyl-dibenzazepine compounds useful for the treatment or prevention of diseases characterized by abnormal cell proliferation” (President Fellows of Harvard College, priority 1997, dated 2006).
Like-named read-outs stand apart in the source and are kept apart here.

Key:
MDA-MB-23 = assay: SRB antiproliferative assay; type: cell-based; settings: Homo sapiens; MDA-MB-23 (Breast); SRB; 5% FCS/5 day incubation; read-out: IC50
Source text: (§1) The cells were passaged using Trypsin (Gibco).

MMRU = assay: SRB antiproliferative assay; type: cell-based; settings: Homo sapiens, MMRU (Melanoma), 5% FCS/5 day incubation
Source text: as §1

[1] = system: H460 large cell lung carcinoma; assay: Mouse xenograft tumor growth; type: in vivo, CD-1 nude mice
RL-60 (TS) = assay: In-Vitro Testing SRB panel: Leukemia; type: cell-based
K-562 = assay: In-Vitro Testing SRB panel: Leukemia; type: cell-based
RPMI-8226 = assay: In-Vitro Testing SRB panel: Leukemia; type: cell-based; settings: RPMI-8226
NCI-H522 = type: cell-based; settings: NCI-H522
SF-268 = assay: In-Vitro Testing SRB panel: CNS Cancer; type: cell-based; settings: SF-268
LOX IMVI = assay: In-Vitro Testing SRB panel: Melanoma; type: cell-based
MALM-3M = assay: In-Vitro Testing SRB panel: Melanoma; type: cell-based; settings: MALM-3M
OVCAR-4 = assay: In-Vitro Testing SRB panel: Ovarian Cancer; type: cell-based; settings: OVCAR-4
786-0 = assay: In-Vitro Testing SRB panel: Renal Cancer; type: cell-based; settings: 786-0
SN12C = assay: In-Vitro Testing SRB panel: Renal Cancer; type: cell-based
TK-10 = assay: In-Vitro Testing SRB panel: Renal Cancer; type: cell-based; settings: TK-10
PC-3 = assay: In-Vitro Testing SRB panel: Prostate Cancer; type: cell-based; settings: PC-3
DU-145 = assay: In-Vitro Testing SRB panel: Prostate Cancer; type: cell-based; settings: DU-145
NCI/ADR-RES = assay: In-Vitro Testing SRB panel: Breast Cancer; type: cell-based
T-47D = assay: In-Vitro Testing SRB panel: Breast Cancer; type: cell-based
[2] = Homo sapiens, read-out: LC50 (the source's name)

SMILES: COc1cccc2c1C(c1ccccc1Cl)c1cc(Cl)ccc1N(C(=O)c1ccc([N+](=O)[O-])cc1)C2 (stereo not shown) [Compound 31]
- IC50 (MDA-MB-23): 0.4 µM
- IC50 (MMRU): 0.2 µM
- tumor growth [1]: showed inhibition of tumor growth
- GI50 (RL-60 (TS); Homo sapiens): 0.512 µM
- CC50 (RL-60 (TS); Homo sapiens, RL-60 (TB), read-out: LC50 (the source's name)): > 100 µM
- TGI (RL-60 (TS); RL-60 (TB)): 1.28E−05 Molar
- Percent Growth (RL-60 (TS); RL-60 (TB), log10 conc -4 Molar): −19%
- Percent Growth (RL-60 (TS); RL-60 (TB), log10 conc -5 Molar): 3%
- Percent Growth (RL-60 (TS); RL-60 (TB), log10 conc -6 Molar): 39%
- Percent Growth (RL-60 (TS); RL-60 (TB), log10 conc -7 Molar): 77%
- Percent Growth (RL-60 (TS); RL-60 (TB), log10 conc -8 Molar): 81%
- GI50 (K-562; Homo sapiens, K562): 0.506 µM
- CC50 (K-562; Homo sapiens, K562, K-562, read-out: LC50 (the source's name)): > 100 µM
- TGI (K-562; K-562): >1.00E−04 Molar
- Percent Growth (K-562; K-562, log10 conc -4 Molar): 15%
- Percent Growth (K-562; K-562, log10 conc -5 Molar): 24%
- Percent Growth (K-562; K-562, log10 conc -6 Molar): 39%
- Percent Growth (K-562; K-562, log10 conc -7 Molar): 77%
- Percent Growth (K-562; K-562, log10 conc -8 Molar): 93%
- GI50 (RPMI-8226; Homo sapiens): 0.327 µM
- CC50 (RPMI-8226; [2]): > 100 µM
- TGI (RPMI-8226): >1.00E−04 Molar
- Percent Growth (RPMI-8226; log10 conc -4 Molar): 21%
- Percent Growth (RPMI-8226; log10 conc -5 Molar): 23%
- Percent Growth (RPMI-8226; log10 conc -6 Molar): 36%
- Percent Growth (RPMI-8226; log10 conc -7 Molar): 65%
- Percent Growth (RPMI-8226; log10 conc -8 Molar): 82%
- GI50 (NCI-H522; Homo sapiens): 7.48 µM
- CC50 (NCI-H522; [2]): > 100 µM
- TGI (NCI-H522): >1.00E−04 Molar
- Percent Growth (NCI-H522; log10 conc -4 Molar): 36%
- Percent Growth (NCI-H522; log10 conc -5 Molar): 44%
- Percent Growth (NCI-H522; log10 conc -6 Molar): 89%
- Percent Growth (NCI-H522; log10 conc -7 Molar): 88%
- Percent Growth (NCI-H522; log10 conc -8 Molar): 99%
- GI50 (SF-268; Homo sapiens): 5.28 µM
- CC50 (SF-268; [2]): > 100 µM
- TGI (SF-268): >1.00E−04 Molar
- Percent Growth (SF-268; log10 conc -4 Molar): 46%
- Percent Growth (SF-268; log10 conc -5 Molar): 47%
- Percent Growth (SF-268; log10 conc -6 Molar): 59%
- Percent Growth (SF-268; log10 conc -7 Molar): 105%
- Percent Growth (SF-268; log10 conc -8 Molar): 94%
- TGI (LOX IMVI): >1.00E−04 Molar
- GI50 (LOX IMVI; Homo sapiens): 0.617 µM
- CC50 (LOX IMVI; [2]): > 100 µM
- Percent Growth (LOX IMVI; log10 conc -4 Molar): 13%
- Percent Growth (LOX IMVI; log10 conc -5 Molar): 12%
- Percent Growth (LOX IMVI; log10 conc -6 Molar): 39%
- Percent Growth (LOX IMVI; log10 conc -7 Molar): 93%
- Percent Growth (LOX IMVI; log10 conc -8 Molar): 97%
- CC50 (MALM-3M; [2]): > 100 µM
- TGI (MALM-3M): >1.00E−04 Molar
- Percent Growth (MALM-3M; log10 conc -4 Molar): 97%
- Percent Growth (MALM-3M; log10 conc -5 Molar): 96%
- Percent Growth (MALM-3M; log10 conc -6 Molar): 42%
- Percent Growth (MALM-3M; log10 conc -7 Molar): 123%
- Percent Growth (MALM-3M; log10 conc -8 Molar): 117%
- GI50 (OVCAR-4; Homo sapiens): 1.83 µM
- CC50 (OVCAR-4; [2]): > 100 µM
- TGI (OVCAR-4): 8.34E−05 Molar
- Percent Growth (OVCAR-4; log10 conc -4 Molar): −1%
- Percent Growth (OVCAR-4; log10 conc -5 Molar): 16%
- Percent Growth (OVCAR-4; log10 conc -6 Molar): 62%
- Percent Growth (OVCAR-4; log10 conc -7 Molar): 83%
- Percent Growth (OVCAR-4; log10 conc -8 Molar): 91%
- TGI (786-0): >1.00E−04 Molar
- Percent Growth (786-0; log10 conc -4 Molar): 14%
- Percent Growth (786-0; log10 conc -5 Molar): 26%
- Percent Growth (786-0; log10 conc -6 Molar): 54%
- Percent Growth (786-0; log10 conc -7 Molar): 91%
- Percent Growth (786-0; log10 conc -8 Molar): 95%
- GI50 (786-0; Homo sapiens): 1.35 µM
- CC50 (786-0; [2]): > 100 µM
- TGI (SN12C): >1.00E−04 Molar
- GI50 (SN12C; Homo sapiens): 6.93 µM
- CC50 (SN12C; [2]): > 100 µM
- Percent Growth (SN12C; log10 conc -4 Molar): 30%
- Percent Growth (SN12C; log10 conc -5 Molar): 43%
- Percent Growth (SN12C; log10 conc -6 Molar): 85%
- Percent Growth (SN12C; log10 conc -7 Molar): 101%
- Percent Growth (SN12C; log10 conc -8 Molar): 94%
- GI50 (TK-10; Homo sapiens): 16.9 µM
- CC50 (TK-10; [2]): > 100 µM
- TGI (TK-10): >1.00E−04 Molar
- Percent Growth (TK-10; log10 conc -4 Molar): 34%
- Percent Growth (TK-10; log10 conc -5 Molar): 55%
- Percent Growth (TK-10; log10 conc -6 Molar): 85%
- Percent Growth (TK-10; log10 conc -7 Molar): 105%
- Percent Growth (TK-10; log10 conc -8 Molar): 102%
- GI50 (PC-3; Homo sapiens): 0.334 µM
- CC50 (PC-3; [2]): > 100 µM
- TGI (PC-3): 7.30E−06 Molar
- Percent Growth (PC-3; log10 conc -4 Molar): −26%
- Percent Growth (PC-3; log10 conc -5 Molar): −6%
- Percent Growth (PC-3; log10 conc -6 Molar): 35%
- Percent Growth (PC-3; log10 conc -7 Molar): 66%
- Percent Growth (PC-3; log10 conc -8 Molar): 91%
- TGI (DU-145): >1.00E−04 Molar
- Percent Growth (DU-145; log10 conc -4 Molar): 26%
- Percent Growth (DU-145; log10 conc -5 Molar): 43%
- Percent Growth (DU-145; log10 conc -6 Molar): 84%
- Percent Growth (DU-145; log10 conc -7 Molar): 105%
- Percent Growth (DU-145; log10 conc -8 Molar): 105%
- GI50 (DU-145; Homo sapiens): 6.84 µM
- CC50 (DU-145; [2]): > 100 µM
- TGI (NCI/ADR-RES): >1.00E−04 Molar
- GI50 (NCI/ADR-RES; Homo sapiens): 3.88 µM
- CC50 (NCI/ADR-RES; [2]): > 100 µM
- Percent Growth (NCI/ADR-RES; log10 conc -4 Molar): 12%
- Percent Growth (NCI/ADR-RES; log10 conc -5 Molar): 27%
- Percent Growth (NCI/ADR-RES; log10 conc -6 Molar): 84%
- Percent Growth (NCI/ADR-RES; log10 conc -7 Molar): 101%
- Percent Growth (NCI/ADR-RES; log10 conc -8 Molar): 95%
- GI50 (T-47D; Homo sapiens, T47D): 2.97 µM
- CC50 (T-47D; Homo sapiens, T47D, T-47D, read-out: LC50 (the source's name)): > 100 µM
- TGI (T-47D; T-47D): >1.00E−04 Molar
- Percent Growth (T-47D; T-47D, log10 conc -4 Molar): 27%
- Percent Growth (T-47D; T-47D, log10 conc -5 Molar): 34%
- Percent Growth (T-47D; T-47D, log10 conc -6 Molar): 65%
- Percent Growth (T-47D; T-47D, log10 conc -7 Molar): 90%
- Percent Growth (T-47D; T-47D, log10 conc -8 Molar): 92%
- TGI (ERVX; ERVX): >1.00E−04 Molar
- Percent Growth (ERVX; ERVX, log10 conc -4 Molar): 7%
- Percent Growth (ERVX; ERVX, log10 conc -5 Molar): 27%
- Percent Growth (ERVX; ERVX, log10 conc -6 Molar): 80%
- Percent Growth (ERVX; ERVX, log10 conc -7 Molar): 103%
- Percent Growth (ERVX; ERVX, log10 conc -8 Molar): 100%
- GI50 (ERVX; Homo sapiens): 3.65 µM
- CC50 (ERVX; Homo sapiens, read-out: LC50): > 100 µM
